For data set [1], the system named is CCD-18Co (human colon fibroblasts).
Data set [2] has the same test system. Description: cells.
Data set [3] relates to Caco-2 (human epithelial colorectal adenocarcinoma). In words: cells.
Data set [4] has as its system HCT-116 (human colon carcinoma). Description: MTS cytotoxicity assay, HCT-116. Type of data set: cell-based. (Tetrazolium dyes change colour on reduction, which living cells bring about.)
For data set [5], the system named is calf thymus DNA (EB-DNA complex). The following applies: binding to DNA; cited from earlier work.

As a reminder, the IC50 is the concentration that inhibits the measured activity by half. A low value points to inhibition by little substance. For `COc1cc([C@@H]2c3cc4c(cc3[C@@H](O[C@@H]3O[C@@H]5CO[C@@H](C)O[C@H]5[C@H](O)[C@H]3O)[C@H]3COC(=O)[C@H]23)OCO4)cc(OC)c1O` [Etoposide], the “cytotoxic selectivity, cancer cells versus normal cells CCD-18Co” value in data set [1] is on record as ~ 2.5 times. Moreover, the IC50 turned out to be 50.1 ± 1.5 µM in data set [2] (24 h); 45.2 ± 1.1 µM in data set [2] (48 h); 42.2 ± 1 µM in data set [2] (72 h); 23.1 ± 1.2 µM in data set [3] (Caco-2, 24 h); 17.9 ± 1.3 µM in data set [3] (Caco-2, 48 h); 16.5 ± 2 µM in data set [3] (Caco-2, 72 h). For the same molecule, the IC50 worked out at 27.2 ± 1.2 µM in data set [4] (HCT-116, 24 h); 22.9 ± 1.5 µM in data set [4] (HCT-116, 48 h); 18.3 ± 1.4 µM in data set [4] (HCT-116, 72 h).

Regarding `CC[n+]1c(-c2ccccc2)c2cc(N)ccc2c2ccc(N)cc21` [ethidium bromide], the “KEB, binding constant for ethidium bromide” value in data set [5] was 1.2e+06 M⁻¹.

Values taken from publication PMC3086094 (Journal of molecular structure, 2011).
